Measurements reported in patent US20120129811A1, “TRICYCLIC INHIBITORS OF PRO-MATRIX METALLOPROTEINASE ACTIVATION” (priority 2010, published 2012).
Structures can show the parent of a compound that is named as a salt.

How the values were obtained:
[1] = molecular target: T1, proMMP9(20-445;ΔFnII) (SEQ ID NO:6) (Homo sapiens, UniProt P14780, DEL216-390); assay: ThermoFluor binding assay with proMMP9(20-445;ΔFnII)
T1 construct: start methionine (N); made in house; host or cells: E. coli BL21(DE3) RIL
T1 sequence (P14780 with tags, fused parts or gaps DEL216-390): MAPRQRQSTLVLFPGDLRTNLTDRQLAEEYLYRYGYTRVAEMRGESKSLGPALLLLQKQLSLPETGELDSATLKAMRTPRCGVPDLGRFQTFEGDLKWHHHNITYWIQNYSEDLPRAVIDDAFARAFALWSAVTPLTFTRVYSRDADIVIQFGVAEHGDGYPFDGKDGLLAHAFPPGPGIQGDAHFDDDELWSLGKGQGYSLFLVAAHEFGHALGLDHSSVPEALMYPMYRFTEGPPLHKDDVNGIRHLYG
Summary of the method: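 Protein thermal stability was measured with 2.8 μM proMMP9(20-445;ΔFnII) and 50 μM 1,8-ANS in 50 mM HEPES pH 7.0, 100 mM NaCl, 0.001% Tween-20, 2.5 mM MgCl2, 300 μM CaCl2, across serial compound dilutions. Samples were heated 40–90° C at 1° C/min with fluorescence read at 500 nm. Tm was fitted, and binding was derived from thermodynamic parameters obtained by DSC and ThermoFluor.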

[2] = molecular target: T2, proMMP13(1-268) (SEQ ID NO:7) (Homo sapiens, UniProt P45452); assay: ThermoFluor binding assay with proMMP13(1-268)
T2 construct: 6xHis (C); made in house; host or cells: HEK293 (transient, secreted)
Experimental: The ThermoFluor® (TF) assay is a 384-well plate-based binding assay that measures thermal stability of proteins (Biomol Screen 2001, 6, 429-40; Biochemistry 2005, 44, 5258-66). The experiments were carried out using instruments available from Johnson & Johnson Pharmaceutical Research & Development, LLC. TF dye used in all experiments was […] (1,8-ANS) (Invitrogen: A-47).
Compounds were arranged in a pre-dispensed plate (Greiner Bio-one: 781280), wherein compounds were serially diluted in 100% DMSO across 11 columns within a series. Columns 12 and 24 were used as DMSO reference and contained no compound. For multiple compound concentration-response experiments, the compound aliquots (50 nL) were robotically predispensed directly into black 384-well polypropylene PCR microplates (Abgene: TF-0384/k) using a Cartesian Hummingbird liquid handler (DigiLab, Holliston, Mass.). Following compound dispense, protein and dye solutions were added to achieve the final assay volume of 3 μL. The assay solutions were overlayed with 1 μL of silicone oil (Fluka, type DC 200: 85411) to prevent evaporation.
Assay plates were robotically loaded onto a thermostatically controlled PCR-type thermal block and then heated from 40 to 90° C. at a ramp-rate of 1° C./min for all experiments. Fluorescence was measured by continuous illumination with UV light (Hamamatsu LC6) supplied via fiber optics and filtered through a band-pass filter (380-400 nm; >60D cutoff). Fluorescence emission of the entire 384-well plate was detected by measuring light intensity using a CCD camera (Sensys, Roper Scientific) filtered to detect 500±25 nm, resulting in simultaneous and independent readings of all 384 wells. A single image with 20-sec exposure time was collected at each temperature, and the sum of the pixel intensity in a given area of the assay plate was recorded vs temperature and fit to standard equations to yield the Tm (J Biomol Screen 2001, 6, 429-40).
Thermodynamic parameters necessary for fitting compound binding for each proMMP were estimated by differential scanning calorimetry (DSC) and from ThermoFluor® data. The heat capacity of unfolding for each protein was estimated from the molecular weight and from ThermoFluor® dosing data.
ThermoFluor® with proMMP13(1-268) (SEQ ID NO: 7)
The proMMP13(1-268) (SEQ ID NO:7) protein sample preparations included a desalting buffer exchange step via a PD-10 gravity column (GE Healthcare). The desalting buffer exchange was performed prior to diluting the protein to the final assay concentration of 3.5 μM. The concentration of proMMP13(1-268) (SEQ ID NO:7) was estimated spectrophotometrically based on a calculated extinction coefficient of ε280=37000 M^−1 cm^−1, a calculated molecular weight of 30.8 kDa, and calculated pI of 5.33. ThermoFluor® reference conditions were defined as follows: 100 μg/mL proMMP13(1-268) (SEQ ID NO:7), 25 μM 1,8-ANS, pH 7.0 Buffer (50 mM HEPES pH 7.0, 100 mM NaCl, 0.001% Tween-20, 2.5 mM MgCl2, 300 μM CaCl2). The thermodynamic parameters for proMMP13(1-268) (SEQ ID NO:7) are as follows: Tm (° C.)=67 (+/−0.1), ΔUH(Tm)) (cal mol^−1)=107000(+/−5000), ΔUSTm (cal mol^−1 K^−1)=318, ΔUCp (cal mol^−1 K^−1)=2600.

[3] = molecular target: T3, full-length proMMP9(1-707) activation by catalytic MMP3 (Homo sapiens, UniProt P14780, R574P); assay: proMMP9/MMP3 P126 Activation Assay; type: biochemical
T3 construct: made in house; host or cells: proMMP9: HEK293 (secreted); MMP3: E. coli
Experimental: proMMP9/MMP3 P126 Activation Assay
The reaction volume was 50 μL. […] Reactivity of residual MMP3 towards P-126 substrate was minimal under these conditions.

[4] = molecular target: T4, proMMP9(67-444;ΔFnII) (SEQ ID NO:5) (Homo sapiens, UniProt P14780, DEL216-390); assay: ThermoFluor binding assay with proMMP9(67-444;ΔFnII)
T4 construct: start methionine (N); made in house; host or cells: E. coli BL21(DE3) RIL
T4 sequence (P14780 with tags, fused parts or gaps DEL216-390): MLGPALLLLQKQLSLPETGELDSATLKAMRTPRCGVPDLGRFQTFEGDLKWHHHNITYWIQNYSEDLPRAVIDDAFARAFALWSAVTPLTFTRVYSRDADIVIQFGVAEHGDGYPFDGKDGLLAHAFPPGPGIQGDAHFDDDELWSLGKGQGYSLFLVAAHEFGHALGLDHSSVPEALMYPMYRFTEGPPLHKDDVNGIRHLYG
Summary of the method: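 Thermal shift of 3.5 μM proMMP9(67-444;ΔFnII), desalted beforehand, with 50 μM 1,8-ANS in 50 mM HEPES pH 7.0, 100 mM NaCl, 2.5 mM MgCl2, 300 μM CaCl2, 0.001% Tween-20. Heated 40–90 °C at 1 °C/min, fluorescence read at 500 nm; binding fitted from Tm shifts using DSC- and ThermoFluor-derived unfolding parameters.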

T3 sequence (P14780 20-707 R574P): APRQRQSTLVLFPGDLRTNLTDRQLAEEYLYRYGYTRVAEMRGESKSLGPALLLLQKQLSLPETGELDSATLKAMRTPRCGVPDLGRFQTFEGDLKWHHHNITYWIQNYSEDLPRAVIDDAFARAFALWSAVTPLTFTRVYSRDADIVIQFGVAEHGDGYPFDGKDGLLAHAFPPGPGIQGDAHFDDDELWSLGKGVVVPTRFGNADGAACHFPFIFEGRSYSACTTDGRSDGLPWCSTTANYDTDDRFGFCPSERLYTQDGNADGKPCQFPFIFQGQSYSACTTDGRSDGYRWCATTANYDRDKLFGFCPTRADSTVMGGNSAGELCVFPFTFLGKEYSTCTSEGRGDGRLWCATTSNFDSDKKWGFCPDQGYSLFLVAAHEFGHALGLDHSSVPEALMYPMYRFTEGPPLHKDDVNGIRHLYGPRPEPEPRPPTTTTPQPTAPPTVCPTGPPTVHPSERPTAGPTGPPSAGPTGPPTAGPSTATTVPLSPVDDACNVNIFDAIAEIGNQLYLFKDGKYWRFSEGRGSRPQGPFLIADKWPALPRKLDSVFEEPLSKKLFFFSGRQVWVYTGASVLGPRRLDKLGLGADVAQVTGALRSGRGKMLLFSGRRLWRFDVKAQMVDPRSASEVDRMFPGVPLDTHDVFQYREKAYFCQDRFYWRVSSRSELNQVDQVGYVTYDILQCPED

Kd [1] [nM]	Kd [2] [nM]	IC50 [3] [nM]	Kd [4] [nM]	Compound
430	2700	490	200	CC(C)Oc1ccc(C(N)=O)cc1Nc1nc2c(ccc3[nH]c(Cl)nc32)s1 [Example 25, 3-(7-Chloro-6H-imidazo[4′,5′:3,4]benzo[2,1-d]thiazol-2-ylamino)-4-isopropoxy-benzamide.HCl]
850	6100	710	700	CC(C)Oc1ccc(C(N)=O)cc1Nc1nc2c(ccc3nc(C(=O)N4CCN(C)CC4)[nH]c32)s1 [Example 26, 4-Isopropoxy-3-[7-(4-methyl-piperazine-1-carbonyl)-8H imidazo[4′,5′:3,4]benzo[2,1-d]thiazol-2-ylamino]-benzamide.HCl]
130	530	58	39	Cc1nc2c3nc(Nc4cc(C(N)=O)ccc4OC(C)C)sc3ccc2n1C [Example 27, 3-(6,7-Dimethyl-6H-imidazo[4′,5′:3,4]benzo[2,1-d]thiazol-2-ylamino)-4-isopropoxy-benzamide.HCl]
880	3500	180	2200	CC(C)Oc1ccc(S(N)(=O)=O)cc1Nc1nc2c(ccc3c2ncn3C)s1 [Example 28, 4-Isopropoxy-3-(6-methyl-6H-imidazo[4′,5′:3,4]benzo[2,1-d]thiazol-2-ylamino)-benzenesulfonamide.HCl]
800	1400	550	630	CC(C)Oc1ccc(C(N)=O)cc1Nc1nc2c(ccc3[nH]cnc32)s1 [Example 29, 3-(6H-Imidazo[4′,5′:3,4]-benzo[2,1-d]thiazol-2-ylamino)-4-isopropoxy-benzamide.HCl]
930	2300	820	820	CC(C)Oc1ccc(C(N)=O)cc1Nc1nc2c(ccc3[nH]c(N4CCN(C)CC4)nc32)s1 [Example 31, 4-Isopropoxy-3-[7-(4-methyl-piperazin-1-yl)-6H-imidazo[4′,5′:3,4]benzo[2,1-d]thiazol-2-ylamino]-benzamide.HCl]
3700	9200	350	540	CC(C)Oc1ccccc1Nc1nc2c(ccc3c2ncn3C)s1 [Example 32, (2-Isopropoxy-phenyl)-(6-methyl-6H-imidazo[4′,5′:3,4]benzo[2,1-d]thiazol-2-yl)-amine.HCl]
120	4000	110	140	CCn1c(C)nc2c3nc(Nc4cc(C(N)=O)ccc4OC(C)C)sc3ccc21 [Example 34, 3-(6-Ethyl-7-methyl-6H-imidazo[4′,5′:3,4]benzo[2,1-d]thiazol-2-ylamino)-4-isopropoxy-benzamide.HCl]
55	430	53	150	CCn1c(C)nc2ccc3sc(Nc4cc(C(N)=O)ccc4OC(C)C)nc3c21 [Example 35, 3-(8-Ethyl-7-methyl-8H-imidazo[4′,5′:3,4]benzo[2,1-d]thiazol-2-ylamino)-4-isopropoxy-benzamide.HCl]
170	2000	300	710	CCCn1c(C)nc2c3nc(Nc4cc(C(N)=O)ccc4OC(C)C)sc3ccc21 [Example 36, 4-Isopropoxy-3-(7-methyl-6-propyl-6H-imidazo[4′,5′:3,4]benzo[2,1-d]thiazol-2-ylamino)-benzamide.HCl]
2300	5900	310	360	CCOc1ccccc1Nc1nc2c(ccc3c2ncn3C)s1 [Example 37, (2-Ethoxy-phenyl)-(6-methyl-6H-imidazo[4′,5′:3,4]benzo[2,1-d]thiazol-2-yl)-amine.HCl]
1000	1400	1500	950	Cc1cc2ccc3sc(Nc4cc(C(N)=O)ccc4OC(C)C)nc3c2o1 [Example 38, 4-Isopropoxy-3-(7-methyl-8-oxa-3-thia-1-aza-as-indacen-2-ylamino)-benzamide.HCl]
440	1500	94	52	COc1ccc(C(N)=O)cc1Nc1nc2c(ccc3c2ncn3C)s1 [Example 39, 4-Methoxy-3-(6-methyl-6H-imidazo[4′,5′:3,4]benzo[2,1-d]thiazol-2-ylamino)-benzamide.HCl]
830	1600	170	100	COc1ccc(Cl)cc1Nc1nc2c(ccc3c2ncn3C)s1 [Example 40, (5-Chloro-2-methoxy-phenyl)-(6-methyl-6H-imidazo[4′,5′:3,4]benzo[2,1-d]thiazol-2-yl)-amine.HCl]
4200	7700	720	900	COc1ccc(C)cc1Nc1nc2c(ccc3c2ncn3C)s1 [Example 41, (2-Methoxy-5-methyl-phenyl)-(6-methyl-6H-imidazo[4′,5′:3,4]benzo[2,1-d]thiazol-2-yl)-amine.HCl]
1900	3400	350	370	COc1ccc(OC)c(Nc2nc3c(ccc4c3ncn4C)s2)c1 [Example 42, (2,5-Dimethoxy-phenyl)-(6-methyl-6H-imidazo[4′,5′:3,4]-benzo[2,1-d]thiazol-2-yl)-amine.HCl]
17000	> 95000	2500	2800	Cn1cnc2c3nc(Nc4ccccc4OCC(F)(F)F)sc3ccc21 [Example 43, (6-Methyl-6H-imidazo[4′,5′:3,4]-benzo[2,1-d]thiazol-2-yl)-[2-(2,2,2-trifluoro-ethoxy)-phenyl]-amine.HCl]
25000	9900	3800	6200	COc1c(Nc2nc3c(ccc4c3ncn4C)s2)cc(C(N)=O)c(F)c1F [Example 44, 2,3-Difluoro-4-methoxy-5-(6-methyl-6H-imidazo[4′,5′:3,4]-benzo[2,1-d]thiazol-2-ylamino)-benzamide.HCl]
